The values below come from patent US7723320B2, “Use of estrogen compounds to increase libido in women” (Pantarhei Bioscience B.V., priority 2001, dated 2010).

Where two headings read alike, the source gives them in different places.

Assay [1] deals with T1, human sex Hormone Binding Globulin (SHBG) (Homo sapiens, UniProt P04278).
T1 construct: made in house; host or cells: transgenic mouse (purified from serum)
T1 sequence (P04278 30-402): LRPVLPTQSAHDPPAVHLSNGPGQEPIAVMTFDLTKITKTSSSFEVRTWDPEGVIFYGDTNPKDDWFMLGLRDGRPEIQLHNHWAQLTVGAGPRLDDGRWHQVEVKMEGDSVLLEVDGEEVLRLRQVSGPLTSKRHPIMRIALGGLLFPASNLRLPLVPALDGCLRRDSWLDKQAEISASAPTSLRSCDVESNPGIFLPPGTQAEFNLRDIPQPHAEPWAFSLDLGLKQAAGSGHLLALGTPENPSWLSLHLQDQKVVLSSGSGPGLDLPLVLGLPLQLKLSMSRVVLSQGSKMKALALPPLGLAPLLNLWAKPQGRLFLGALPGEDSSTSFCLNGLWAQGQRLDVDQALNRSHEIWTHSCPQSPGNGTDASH
Briefly: Competitive steroid-binding assay, SHBG. The note with it: [3H]DHT or [3H]estradiol as labeled ligands. As for the experimental part:
Human SHBG was treated for 30 min at room temperature with a dextran-coated charcoal (DCC) suspension in phosphate buffered saline (PBS) to remove any steroid ligand. After centrifugation (2,000×g for 10 min) to sediment the DCC, the supernatant containing the human SHBG was diluted in PBS to a concentration of 1 nM based on its steroid binding capacity.
The average amounts of [^3H]labeled ligands bound to SHBG at each concentration of competitor (B) were expressed as a percentage of the average amounts of [^3H]labeled ligands bound to SHBG in the absence of competitor (B0), and were plotted against the concentration of competitor in each assay tube.

The test system of the next assay is immature rat uterus. The note with it: subcutaneously administered, Holinka et al., cited from earlier work.
For assay [2], the target named is T2, estrogen receptor in the human endometrium (Homo sapiens, UniProt P03372).
T2 construct: estrogen receptors in the human endometrium; host or cells: human endometrium (nuclei)
T2 sequence (P03372 1-595): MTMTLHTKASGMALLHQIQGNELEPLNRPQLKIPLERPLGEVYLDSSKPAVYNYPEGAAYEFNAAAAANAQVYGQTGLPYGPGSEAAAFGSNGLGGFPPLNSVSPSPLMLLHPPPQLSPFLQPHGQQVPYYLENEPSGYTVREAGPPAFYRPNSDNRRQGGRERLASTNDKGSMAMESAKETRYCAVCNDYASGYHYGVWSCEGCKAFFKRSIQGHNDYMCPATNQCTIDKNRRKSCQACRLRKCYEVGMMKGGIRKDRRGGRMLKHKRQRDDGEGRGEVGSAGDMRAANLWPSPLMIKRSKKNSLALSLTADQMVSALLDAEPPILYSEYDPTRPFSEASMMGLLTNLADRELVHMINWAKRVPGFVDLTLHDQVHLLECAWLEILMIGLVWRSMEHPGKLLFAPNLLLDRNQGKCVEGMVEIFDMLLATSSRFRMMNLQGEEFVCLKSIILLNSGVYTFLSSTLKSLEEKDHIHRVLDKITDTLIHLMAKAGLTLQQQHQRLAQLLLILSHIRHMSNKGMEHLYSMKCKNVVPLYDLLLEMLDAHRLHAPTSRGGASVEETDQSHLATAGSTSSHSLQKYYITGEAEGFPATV
Conditions: Tseng et al., 1976; cited from earlier work.

A further assay addresses T3, human ERα (Homo sapiens, UniProt P03372).
T3 sequence (P03372 1-595): T2 sequence (P03372 1-595)
Briefly: Competitive steroid binding assay, ERα. The note with it: for inhibition at 0.003 µM: E4 3 nM; for inhibition at 0.01 µM: E4 10 nM; for inhibition at 0.03 µM: E4 0.03 μM; for inhibition at 0.1 µM: E4 0.1 μM; for inhibition at 0.3 µM: E4 0.3 μM.

[3] abbreviates: Test 1, read-out: Percent inhibition of specific binding in ERα steroid binding assay.
The mark [4] stands for this setting: Test 2, read-out: Percent inhibition of specific binding in ERα steroid binding assay.
The mark [5] stands for this setting: Test 3, read-out: Percent inhibition of specific binding in ERα steroid binding assay.

Regarding `C[C@]12CC[C@@H]3c4ccc(O)cc4CC[C@H]3[C@@H]1[C@@H](O)[C@@H](O)[C@@H]2O` [E4, 1,3,5(10)-estratrien-3,15α,16α,17β-tetrol], the “relative binding affinity for human SHBG” value in assay [1] is “does not bind at all”. Besides, in the assay on immature rat uterus (1979), the uterotrophic activity result is on record as “very weak uterotrophic activity”. In addition, in the assay on immature rat uterus (1980), the uterotrophic activity entry was “very weak uterotrophic activity”. In addition, the “relative binding constant compared to 17β-estradiol (100%)” value in assay [2] is on record as 6.25%. For the same compound, on human ERα (setting [3]), the inhibition (in general, the relative decrease from the control value, in per cent) at 0.003 µM was found to be 26%; the inhibition at 0.01 µM is 43%; the inhibition at 0.03 µM came out at 64%; the inhibition at 0.1 µM was found to be 83%. Also, the inhibition at 0.3 µM at human ERα (setting [3]) was 92%. Besides, on human ERα (setting [4]), the inhibition at 0.003 µM was 17%, the inhibition at 0.01 µM amounted to 32%, the inhibition at 0.03 µM was determined as 66% and the inhibition at 0.1 µM stood at 85%. For the same compound, the inhibition at 0.3 µM at human ERα (setting [4]) worked out at 94%. In addition, on human ERα (setting [5]), the inhibition at 0.003 µM turned out to be 11%, the inhibition at 0.01 µM was determined as 28%, the inhibition at 0.03 µM is 63% and the inhibition at 0.1 µM is 86%. The inhibition at 0.3 µM at human ERα (setting [5]) was determined as 101%. Further, the inhibition at 1 µM on human ERα (E4 1 μM, Test 1, read-out: Percent inhibition of specific binding in ERα steroid binding assay) is 98%. Also, the “Relative ERα/ERβ preference” value at human ERα (from Ki values for ERα and ERβ) is recorded as 400%.
